Experimental data published in patent publication EP1900728A1 (Genecare Research Institute Co., Ltd, priority 2005, dated 2006).
Like-named read-outs stand apart in the source and are kept apart here.

Assays:
[1] = target: T1, IκBα ubiquitinating enzyme (SCF complex: ROC1, Cullin1, Skp1, His-TrCP1; with E1, UbcH5b) (Homo sapiens, UniProt P62877+P63208+Q13616+Q9Y297); experiment: Measurement of ubiquitinating enzyme activity (IκBα ubiquitination, time-resolved fluorescence with Eu(K)-labeled ubiquitin and XL665-labeled anti-GST antibody); assay type: biochemical
T1 construct: His (polyhistidine); made in house; host or cells: insect cells (baculovirus) for the SCF complex and His-E1; E. coli for His-UBCH5b
In short: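 Human SCF complex with E1 and UbcH5b ubiquitinated GST-IκBα pre-phosphorylated by IKKβ (2 mM ATP, pH 7.4, 1 h, RT), with Eu(K)-ubiquitin, 30 min RT. Stopped with EDTA, XL665 anti-GST added for 2 h; 665/620 nm TR-FRET ratio. % inhibition versus no-compound control and no-SCF blank gave IC50.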

[2] = tested on: ICAM-1 expression in HT-29 cells; experiment: Measurement of ICAM-1 expressing activity (TNFα-induced ICAM-1 expression, cell ELISA); assay type: cell-based; details: Homo sapiens, Table 6, cell activity inhibition test by method (3), read-out: EVALUATION (IC50 class, inhibition of cell activity)
In short: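 HT-29 cells pretreated with compound (0.5% DMSO final) for 30 min at 37°C, then stimulated with 30 ng/mL human TNFα for 4 h. Surface ICAM-1 measured by cell ELISA on methanol-fixed cells: anti-ICAM-1 plus POD secondary, TMBZ substrate, absorbance at 450 nm.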

[3] = enzyme activity inhibition test, method (1), Table 5, read-out: EVALUATION

T1 sequence (Q9Y297 whole entry): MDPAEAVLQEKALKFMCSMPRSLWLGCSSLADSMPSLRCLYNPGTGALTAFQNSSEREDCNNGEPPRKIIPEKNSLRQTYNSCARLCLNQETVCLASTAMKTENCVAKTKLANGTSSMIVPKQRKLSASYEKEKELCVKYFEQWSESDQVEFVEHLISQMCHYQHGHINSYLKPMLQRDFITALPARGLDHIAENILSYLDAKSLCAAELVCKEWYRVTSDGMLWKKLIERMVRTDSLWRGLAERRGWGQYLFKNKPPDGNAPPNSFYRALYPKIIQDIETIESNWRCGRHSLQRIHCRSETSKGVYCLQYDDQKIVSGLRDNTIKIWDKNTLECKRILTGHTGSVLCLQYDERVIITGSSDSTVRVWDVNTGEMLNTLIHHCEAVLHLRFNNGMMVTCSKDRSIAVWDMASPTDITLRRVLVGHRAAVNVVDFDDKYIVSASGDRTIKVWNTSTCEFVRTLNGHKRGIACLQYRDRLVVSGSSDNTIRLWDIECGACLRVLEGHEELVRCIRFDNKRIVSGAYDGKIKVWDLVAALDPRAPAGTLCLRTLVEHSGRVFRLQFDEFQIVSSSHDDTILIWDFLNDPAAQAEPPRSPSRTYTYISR
T1 sequence (Q13616 whole entry): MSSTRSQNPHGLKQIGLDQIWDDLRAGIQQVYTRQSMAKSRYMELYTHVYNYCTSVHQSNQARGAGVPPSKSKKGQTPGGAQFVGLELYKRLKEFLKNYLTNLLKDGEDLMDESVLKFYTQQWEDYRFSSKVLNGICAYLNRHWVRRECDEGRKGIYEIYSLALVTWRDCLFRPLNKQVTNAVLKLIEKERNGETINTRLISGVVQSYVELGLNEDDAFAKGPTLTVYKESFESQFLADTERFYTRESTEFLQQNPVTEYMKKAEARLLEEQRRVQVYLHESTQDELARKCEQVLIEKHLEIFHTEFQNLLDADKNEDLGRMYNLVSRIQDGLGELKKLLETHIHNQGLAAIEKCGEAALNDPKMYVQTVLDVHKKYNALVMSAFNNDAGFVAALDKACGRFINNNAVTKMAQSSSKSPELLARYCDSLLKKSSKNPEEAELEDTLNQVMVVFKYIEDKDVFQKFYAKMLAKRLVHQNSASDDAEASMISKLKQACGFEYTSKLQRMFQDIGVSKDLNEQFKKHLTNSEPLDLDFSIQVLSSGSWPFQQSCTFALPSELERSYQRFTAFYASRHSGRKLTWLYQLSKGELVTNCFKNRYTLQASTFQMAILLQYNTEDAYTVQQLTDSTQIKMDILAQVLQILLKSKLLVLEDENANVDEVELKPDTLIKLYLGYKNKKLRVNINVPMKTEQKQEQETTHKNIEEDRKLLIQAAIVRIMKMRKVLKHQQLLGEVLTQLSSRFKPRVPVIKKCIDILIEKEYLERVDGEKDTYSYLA
T1 sequence (P63208 whole entry): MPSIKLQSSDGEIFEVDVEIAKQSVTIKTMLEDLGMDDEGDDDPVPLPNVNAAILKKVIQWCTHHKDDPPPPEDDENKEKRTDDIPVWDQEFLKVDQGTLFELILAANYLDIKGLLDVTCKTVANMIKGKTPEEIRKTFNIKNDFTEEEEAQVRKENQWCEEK
T1 sequence (P62877 whole entry): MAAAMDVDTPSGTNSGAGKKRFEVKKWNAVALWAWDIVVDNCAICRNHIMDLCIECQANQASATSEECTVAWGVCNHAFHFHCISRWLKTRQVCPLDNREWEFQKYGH

| Compound | IC50 [2] | IC50 [1, 3] | IC50 [1] |
| --- | --- | --- | --- |
| COc1ccc(C2=NN(c3ccc(C(=O)O)cc3)C(=O)C2=Cc2ccc3ccccc3c2)cc1OC [Compound 333] | 10 to 20 µM | – | 10 to 20 µM |
| O=C(O)c1cccc(N2N=C(c3ccoc3)/C(=C/c3ccc(-c4ccccc4F)o3)C2=O)c1 [Compound 484] | 10 to 20 µM | < 10 µM | – |
| CC1=NN(c2ccc(S(N)(=O)=O)cc2)C(=O)/C1=C\c1ccc2ccccc2c1 [Compound 116] | 10 to 20 µM | 10 to 20 µM | – |
| CC1=NN(c2cccc(S(N)(=O)=O)c2)C(=O)/C1=C\c1ccc2[nH]ccc2c1 [Compound 134] | < 40 µM | < 10 µM | – |
| COc1cc(/C=C2/C(=O)N(C3CCCCC3)N=C2C)ccc1O [Compound 199] | < 10 µM | 10 to 20 µM | – |
| O=C1/C(=C\c2ccc3c(c2)OCCO3)C(C2CC2)=NN1c1ccccc1 [Compound 77] | < 40 µM | < 10 µM | – |
| CC1=NN(c2cccc(C(=O)N3CCCC(C(=O)O)C3)c2)C(=O)/C1=C\c1ccc2[nH]ccc2c1 (centres unmarked) [Compound 376] | < 40 µM | < 10 µM | – |
| CC1=NN(c2ccc(C(=O)O)cc2)C(=O)C1=Cc1ccc(N2CCN(c3ccccc3)CC2)cc1 [Compound 430] | < 10 µM | – | < 10 µM |
| COc1cc(/C=C2\C(=O)N(c3ccccn3)N=C2C)ccc1O [Compound 129] | < 10 µM | < 40 µM | – |
| COc1cc(/C=C2\C(=O)N(c3ccc(S(N)(=O)=O)cc3)N=C2C)ccc1OCC(=O)OC(C)(C)C [Compound 121] | 10 to 20 µM | 10 to 20 µM | – |
| COC(=O)c1ccc(COc2ccc(C=C3C(=O)N(c4ccc(C(=O)O)cc4)N=C3C)cc2OC)cc1 [Compound 347] | 10 to 20 µM | – | < 10 µM |
| COC(=O)N1CCN(c2ccc(C=C3C(=O)N(c4ccc(C(=O)O)cc4)N=C3c3cccnc3)cc2)CC1 [Compound 307] | < 40 µM | – | 10 to 20 µM |
| COc1cc(/C=C2\C(=O)N(c3ccccc3)N=C2C2CC2)ccc1O [Compound 69] | 10 to 20 µM | 10 to 20 µM | – |
| O=C1/C(=C\c2ccc(CO)o2)C(Cc2ccccc2)=NN1c1ccccc1 [Compound 27] | 10 to 20 µM | < 10 µM | – |
| CC1=NN(c2ccc(S(N)(=O)=O)cc2)C(=O)/C1=C\c1cc2ccccc2o1 [Compound 168] | 10 to 20 µM | < 10 µM | – |
| CC1=NN(c2cccc(C(=O)N3CCOCC3)c2)C(=O)/C1=C\c1ccc2c(c1)OCCO2 [Compound 411] | < 40 µM | < 10 µM | – |
| O=C1/C(=C\c2ccc3ccccc3c2)C(c2ccoc2)=NN1c1ccccc1 [Compound 12] | < 40 µM | < 10 µM | – |
| CC1=NN(c2ccc(S(N)(=O)=O)cc2)C(=O)/C1=C\c1ccc2cc[nH]c2c1 [Compound 148] | < 40 µM | < 10 µM | – |
| COc1ccccc1C(=O)Nc1ccc(C=C2C(=O)N(c3ccc(S(N)(=O)=O)cc3)N=C2C)cc1 [Compound 228] | 10 to 20 µM | – | < 10 µM |

Further lines, with some results ahead:

| IC50 [2] | IC50 [1, 3] | Compound | IC50 [1] |
| --- | --- | --- | --- |
| 10 to 20 µM | < 10 µM | COc1cc(/C=C2\C(=O)N(c3ccc(C(=O)O)cc3)N=C2C2CC2)ccc1OCc1ccccc1 [Compound 314] | – |
| 10 to 20 µM | < 10 µM | CC1=NN(c2ccc(C(=O)O)cc2)C(=O)/C1=C\c1ccc(-n2ccnc2)cc1 [Compound 258] | – |
| 10 to 20 µM | 10 to 20 µM | CCCCC1=NN(c2ccc(C(=O)O)cc2)C(=O)/C1=C\c1ccc(-n2cncn2)cc1 [Compound 306] | – |
| 10 to 20 µM | 10 to 20 µM | CCCCC1=NN(c2cccc(C(=O)O)c2)C(=O)/C1=C\c1ccc(N2CCCC2)cc1 [Compound 479] | – |
| 10 to 20 µM | < 10 µM | CCCCC1=NN(c2ccc(C(=O)O)cc2)C(=O)/C1=C\c1ccc(N2CCN(C)CC2)cc1 [Compound 340] | – |
| < 40 µM | < 10 µM | COc1cc(/C=C2\C(=O)N(c3ccc(C(=O)O)cc3)N=C2C2CC2)ccc1O [Compound 312] | – |
| < 40 µM | < 10 µM | CC(=O)N1CCN(c2ccc(/C=C3\C(=O)N(c4cccc(C(=O)O)c4)N=C3C)cc2)CC1 [Compound 442] | – |
| 10 to 20 µM | < 10 µM | CC1=NN(c2ccc(C(=O)O)cc2)C(=O)/C1=C\c1ccc(N2CCN(c3ccc(F)cc3)CC2)cc1 [Compound 448] | – |
| < 10 µM | < 10 µM | COCC1=NN(c2ccc(C(=O)O)cc2)C(=O)/C1=C\c1ccc2ccccc2c1 [Compound 233] | – |
| 10 to 20 µM | 10 to 20 µM | COc1cc(/C=C2\C(=O)N(c3ccc(C(=O)O)cc3)N=C2Cc2ccccc2)ccc1O [Compound 263] | – |
| 10 to 20 µM | < 10 µM | CC1=NN(c2ccc(C(=O)O)cc2)C(=O)/C1=C\c1ccc(-n2cccn2)cc1 [Compound 261] | – |
| < 40 µM | < 10 µM | CC1=NN(c2ccc(C(=O)O)cc2)C(=O)/C1=C\c1ccc(OCC(=O)Nc2ccccc2)cc1 [Compound 537] | – |
| 10 to 20 µM | < 10 µM | CC1=NN(c2ccc(S(N)(=O)=O)cc2)C(=O)/C1=C\c1ccc(C(C)(C)C)cc1 [Compound 115] | – |
| 10 to 20 µM | < 10 µM | O=C(O)c1ccc(N2N=C(c3ccoc3)/C(=C/c3ccc(-c4cnn(Cc5ccccc5)c4)o3)C2=O)cc1 [Compound 492] | – |
| < 40 µM | < 10 µM | CCCCC1=NN(c2ccc(C(=O)O)cc2)C(=O)/C1=C\c1ccc(N2CCN(c3ccccc3)CC2)cc1 [Compound 434] | – |
| < 10 µM | 10 to 20 µM | CC1=NN(c2ccc(S(N)(=O)=O)cc2)C(=O)/C1=C\c1ccc(Oc2ccccc2)cc1 [Compound 213] | – |
| < 10 µM | < 10 µM | COc1ccc(C2=NN(c3ccc(C(=O)O)cc3)C(=O)/C2=C\c2ccc3c(c2)OCCO3)cc1OC [Compound 283] | – |
| < 40 µM | < 10 µM | CC1=NN(c2cccc(C(=O)O)c2)C(=O)/C1=C\c1ccc(N2CCOCC2)cc1 [Compound 441] | – |
| < 40 µM | 10 to 20 µM | COCCC1=NN(c2ccc(C(=O)O)cc2)C(=O)/C1=C\c1ccc(-c2cnn(C)c2)o1 [Compound 512] | – |
| < 40 µM | 10 to 20 µM | CC1=NN(c2ccc(C(=O)O)cc2)C(=O)/C1=C\c1ccc(N2CCN(C(=O)OC(C)(C)C)CC2)cc1 [Compound 436] | – |
| < 40 µM | < 10 µM | CC1=NN(c2ccc(C(=O)O)cc2)C(=O)/C1=C\c1ccc2c(ccn2CC2CCCCC2)c1 [Compound 498] | – |
| < 40 µM | < 10 µM | O=C(O)c1ccc(N2N=C(c3ccoc3)/C(=C/c3ccc(CO)o3)C2=O)cc1 [Compound 247] | – |
| < 10 µM | < 10 µM | COCC1=NN(c2ccc(C(=O)O)cc2)C(=O)/C1=C\c1ccc(CO)o1 [Compound 328] | – |
| 10 to 20 µM | < 10 µM | CCOC(=O)c1ccc(COc2ccc(/C=C3\C(=O)N(c4ccc(C(=O)O)cc4)N=C3C)cc2OC)o1 [Compound 392] | – |
| 10 to 20 µM | < 10 µM | CC1=NN(c2cccc(C(=O)O)c2)C(=O)/C1=C\c1ccc(N2CCN(C(=O)c3ccccc3)CC2)cc1 [Compound 440] | – |
| < 40 µM | 10 to 20 µM | COc1ccc(C2=NN(c3ccc(C(=O)O)cc3)C(=O)/C2=C\c2ccc(CO)o2)cc1OC [Compound 280] | – |
| < 40 µM | < 10 µM | CC1=NN(c2ccc(C(=O)O)cc2)C(=O)/C1=C\c1ccc(NC(=O)c2ccccc2)cc1 [Compound 544] | – |
